ChEMBL document CHEMBL3352773, “Synthesis and evaluation of the 2,4-diaminoquinazoline series as anti-tubercular agents” (Bioorg Med Chem, 2014)
In brackets after ≈: the same amount, converted by molar mass. Activity calls are given as the source filed them. No cut-off for these calls is given here.

Experiments:
[1] = tested on: Mycobacterium tuberculosis; test: Antituberculosis activity against Mycobacterium tuberculosis H37Rv assessed as complete growth inhibition at 20 uM after 5 days; type: functional; conditions: 120 h
Rattus norvegicus [2] = test: Volume of distribution at steady state in Sprague-Dawley rat at 10 mg/kg, po after 24 hrs; type: ADME, organism-based; parameters: dose 10 mg/kg, route oral; conditions: in vivo
[3] = tested on: Mycobacterium tuberculosis; test: Antituberculosis activity against Mycobacterium tuberculosis H37Rv assessed as complete growth inhibition after 5 days using solid media by serial proportion method; type: functional; conditions: 120 h
[4] = Oral bioavailability in Sprague-Dawley rat at 10 mg/kg after 24 hrs; type: ADME, organism-based; conditions: in vivo
Rattus norvegicus [5] = test: AUC in Sprague-Dawley rat at 10 mg/kg, po after 24 hrs; type: ADME, organism-based, Plasma; parameters: time < 24 hr, dose 10 mg/kg, route oral; conditions: in vivo
[6] = tested on: Mycobacterium tuberculosis; test: Antituberculosis activity against Mycobacterium tuberculosis H37Rv assessed as complete growth inhibition after 5 days using liquid media; type: functional; conditions: 120 h
[7] = tested on: Mycobacterium tuberculosis; test: Antituberculosis activity against Mycobacterium tuberculosis H37Rv assessed as complete growth inhibition after 5 days; type: functional; conditions: 120 h
[8] = tested on: Mycobacterium tuberculosis; test: Bactericidal activity against Mycobacterium tuberculosis H37Rv under aerobic and replicating condition assessed as reduction in viability at 124 uM measured over 7 days by time kill kinetic study relative to control; type: functional
[9] = tested on: Mycobacterium tuberculosis; test: Antituberculosis activity against Mycobacterium tuberculosis H37Rv grown in liquid media using palmitate as carbon source assessed as growth inhibition; type: functional
[10] = tested on: Mycobacterium tuberculosis; test: Antituberculosis activity against Mycobacterium tuberculosis H37Rv assessed as complete growth inhibition at 56 uM in presence of hemin; type: functional, organism-based
[11] = tested on: Mycobacterium tuberculosis; test: Antituberculosis activity against Mycobacterium tuberculosis H37Rv assessed as complete growth inhibition at 56 uM in absence of hemin; type: functional, organism-based
[12] = tested on: Mycobacterium tuberculosis; test: Antituberculosis activity against Mycobacterium tuberculosis H37Rv grown in solid media assessed as growth inhibition by serial proportion method; type: functional
[13] = tested on: Mycobacterium tuberculosis; test: Bactericidal activity against Mycobacterium tuberculosis H37Rv under non-replicating condition assessed as reduction in viability at 124 uM measured over 7 days by time kill kinetic study relative to control; type: functional
[14] = tested on: Mycobacterium tuberculosis; test: Antituberculosis activity against Mycobacterium tuberculosis H37Rv grown in liquid media using glucose as carbon source assessed as growth inhibition; type: functional

Compound | inhibition at 20 µM [1] [%] | MIC99 [7] [µM] | other results
Fc1ccc2c(c1)CCN(c1nc(N3CCCCC3)nc3ccccc13)C2 | 94 |  | 
OCC1CCN(c2nc(NCc3ccc(F)cc3)c3ccccc3n2)CC1 | < 30 |  | 
c1ccc2c(NCC3CCCCC3)nc(N3CCCCC3)nc2c1 | 99 |  | 
Cc1ccc2nc(N3CCCCC3)nc(NCc3ccc(F)cc3)c2c1 | 99 |  | 
Fc1ccc(Cn2cnc3c(N4CCCCC4)nc4ccccc4c32)cc1 | 98 |  | Vdss (Rattus norvegicus [2]): 14.2 L/kg; MIC99 [3]: 27.7 µM (≈ 9.98 µg/mL); bioavailability [4]: 3.4%; AUC (Rattus norvegicus [5]): 27.4 ng·h/mL; MIC99 [6]: 13.8 µM (≈ 4.97 µg/mL)
Nc1ccc(CNc2nc(N3CCCCC3)nc3ccccc23)cc1 | < 30 |  | 
Ic1cccc(CNc2nc(N3CCCCC3)nc3ccccc23)c1 | 98 |  | 
Clc1ccc(Cl)c(CNc2nc(N3CCCCC3)nc3ccccc23)c1 | 97 |  | 
CNC1CCN(c2nc(NCc3ccc(F)cc3)c3ccccc3n2)CC1 | 33 |  | 
Fc1ccc(CNc2cc(N3CCCCC3)nc3ncnn23)cc1 | < 30 |  | 
Fc1ccc(CNc2nc(N3CCCCC3)ncc2Cc2ccccc2)cc1 | 68 | 26 (≈ 9.79 µg/mL) | 
CN(C)C1CCN(c2nc(NCc3ccc(F)cc3)c3ccccc3n2)CC1 | < 30 |  | 
Cc1cccc2nc(N3CCCCC3)nc(NCc3ccc(F)cc3)c12 | 98 |  | 
Fc1ccc(CNc2nc(N3CCCCC3)nc3sccc23)cc1 |  | 73 (≈ 25 µg/mL) | 
O=C(O)C1CCN(c2nc(NCc3ccc(F)cc3)c3ccccc3n2)CC1 | < 30 |  | 
Cc1nc(N2CCCCC2)nc(NCc2ccc(F)cc2)c1C | < 30 |  | 
Fc1ccc(CCc2nc(N3CCCCC3)nc3ccccc23)cc1 | < 30 |  | 
Clc1ccc(CNc2nc(N3CCCCC3)nc3ccccc23)cc1Cl | 98 |  | 
CNc1nc(N2CCCCC2)nc2ccccc12 | < 30 | 206 (≈ 49.9 µg/mL) | 
Fc1ccc(CNc2nc(N3CCCC3)nc3ccccc23)cc1 | 97 | 31 (≈ 9.99 µg/mL) | 
COc1cccc2c(NCc3ccc(F)cc3)nc(N3CCCCC3)nc12 | 83 |  | 
Fc1ccc(CNc2cc(N3CCCCC3)nc3ccnn23)cc1 | < 30 |  | 

Compound | inhibition at 20 µM [1] [%] | MIC99 [7] [µM] | other results
Fc1ccc(CNc2nc(N3CCCCC3)nc3ncccc23)cc1 | 37 | 74 (≈ 25 µg/mL) | 
c1ccc2nc(N3CCCCC3)ncc2c1 | < 30 | 469 (≈ 100 µg/mL) | 
Fc1ccc(CNc2nc(CN3CCCCC3)nc3ccccc23)cc1 | < 30 | 29 (≈ 10.2 µg/mL) | 
Fc1cccc(CNc2nc(N3CCCCC3)nc3ccccc23)c1 | 98 |  | 
FC(F)(F)c1ccc(CNc2nc(N3CCCCC3)nc3ccccc23)cc1 | 99 | 6.6 (≈ 2.55 µg/mL) | fold change (FC) [8]: 4; MIC99 [9]: 28 µM (≈ 10.8 µg/mL); Activity [10]: Active; Activity [11]: Active; MIC99 [12]: 16 µM (≈ 6.18 µg/mL); fold change (FC) [13]: 3; MIC99 [14]: 28 µM (≈ 10.8 µg/mL)
Fc1ccc(COc2nc(N3CCCCC3)nc3ccccc23)cc1 | < 30 | 296 (≈ 99.9 µg/mL) | 
c1ccc2c(CNc3nc(N4CCCCC4)nc4ccccc34)cccc2c1 | 97 |  | 
OC1CCN(c2nc(NCc3ccc(F)cc3)c3ccccc3n2)CC1 | < 30 |  | 
CN(C)c1nc(NCc2ccc(F)cc2)c2ccccc2n1 | 40 | 34 (≈ 10.1 µg/mL) | 
Fc1ccc(CNc2nc(N3CCCCC3)nc3ccsc23)cc1 | < 30 | 292 (≈ 100 µg/mL) | 
Fc1ccc(CSc2nc(N3CCCCC3)nc3ccccc23)cc1 | < 30 | 282 (≈ 99.7 µg/mL) | 
CO[C@H]1/C=C/O[C@@]2(C)Oc3c(C)c(O)c4c(O)c(c(/C=N/N5CCN(C)CC5)c(O)c4c3C2=O)NC(=O)/C(C)=C\C=C\[C@H](C)[C@H](O)[C@@H](C)[C@@H](O)[C@@H](C)[C@H](OC(C)=O)[C@@H]1C [RIFAMPIN] | 100 |  | MIC99 [3]: 0.013 µM (≈ 0.0107 µg/mL); MIC99 [6]: 0.004 µM (≈ 0.00329 µg/mL)
Cn1cnc2c(NCc3ccc(F)cc3)nc(N3CCCCC3)nc21 | < 30 |  | 
Fc1ccc(CNc2nc(N3CCCCC3)nc3[nH]ccc23)cc1 | < 30 |  | 
Fc1ccc(Nc2nc(N3CCCCC3)nc3ccccc23)cc1 | < 30 | 39 (≈ 12.6 µg/mL) | 
Fc1ccc(CNc2nc(N3Cc4ccccc4C3)nc3ccccc23)cc1 | 78 |  | 
CC1CCN(c2nc(NCc3ccc(F)cc3)c3ccccc3n2)CC1 | 97 |  | 
Nc1nc(NCc2ccc(F)cc2)c2ccccc2n1 | < 30 | 93 (≈ 25 µg/mL) | 
Fc1ccc(CNc2nc(N3CCCCC3)nc3ccccc23)c(F)c1 | 97 |  | 
Fc1ccc(CNc2nc(N3CCCCC3)nc3cc(Cl)ccc23)cc1 | 51 |  | 
CC(C)CNc1nc(N2CCCCC2)nc2ccccc12 | 37 | 25 (≈ 7.11 µg/mL) | 
Fc1ccc(CNc2ncnc3ccccc23)cc1 | < 30 | 99 (≈ 25.1 µg/mL) | 

Compound | inhibition at 20 µM [1] [%] | MIC99 [7] [µM] | other results
FC(F)(F)c1ccc(CCNc2nc(N3CCCCC3)nc3ccccc23)cc1 | 97 | 5.7 (≈ 2.28 µg/mL) | 
Clc1ccc(CNc2nc(N3CCCCC3)nc3ccccc23)cc1 | 99 |  | 
Cn1ccc2c(NCc3ccc(F)cc3)nc(N3CCCCC3)nc21 | < 30 |  | 
Fc1ccc(CNc2nc(N3CCCCC3)nc3c(Cl)cccc23)cc1 | < 30 |  | 
COc1ccc2nc(N3CCCCC3)nc(NCc3ccc(F)cc3)c2c1 | 97 |  | 
Fc1ccccc1CNc1nc(N2CCCCC2)nc2ccccc12 | 97 |  | 
CC1CC(C)CN(c2nc(NCc3ccc(F)cc3)c3ccccc3n2)C1 (stereo not given) | < 30 |  | 
Fc1ccc(CNc2nc(C3CCCCC3)nc3ccccc23)cc1 | 47 | 15 (≈ 5.03 µg/mL) | 
OCCN(CCO)c1nc(NCc2ccc(F)cc2)c2ccccc2n1 | < 30 |  | 
CNc1nc(NCc2ccc(F)cc2)c2ccccc2n1 | 44 | 35 (≈ 9.88 µg/mL) | 
O=[N+]([O-])c1cccc2c(NCc3ccc(F)cc3)nc(N3CCCCC3)nc12 | < 30 |  | 
Fc1ccc(CNc2nc(N3CCNCC3)nc3ccccc23)cc1 | < 30 | 148 (≈ 49.9 µg/mL) | 
Fc1ccc(CNc2nc(N3CCCCC3)nc3[nH]cnc23)cc1 | < 30 |  | 
O=C(O)CNC1CCN(c2nc(NCc3ccc(F)cc3)c3ccccc3n2)CC1 | < 30 |  | 
Cc1cnc(N2CCCCC2)nc1NCc1ccc(F)cc1 | < 30 | 83 (≈ 24.9 µg/mL) | 
COc1ccc2c(NCc3ccc(F)cc3)nc(N3CCCCC3)nc2c1 | 74 |  | 
Cc1ccc(CNc2nc(N3CCCCC3)nc3ccccc23)cc1 | 98 |  | 
Fc1ccc(CNc2cc(Cc3ccccc3)nc(N3CCCCC3)n2)cc1 | 84 | 27 (≈ 10.2 µg/mL) | 
Nc1ccc(N2CCN(c3nc(NCc4ccc(F)cc4)c4ccccc4n3)CC2)cc1 | 94 |  | 
Cc1cccc(CNc2nc(N3CCCCC3)nc3ccccc23)c1 | 99 |  | 
FC(F)(F)Oc1ccc(CNc2nc(N3CCCCC3)nc3ccccc23)cc1 | 95 |  | 
COc1ccc(CNc2nc(N3CCCCC3)nc3ccccc23)cc1Cl | 98 |  | 

Compound | inhibition at 20 µM [1] [%] | MIC99 [7] [µM] | other results
Fc1ccc(CNc2nc(N3CCCCC3)nc3cccnc23)cc1 | < 30 | 37 (≈ 12.5 µg/mL) | 
Fc1ccc(CNc2nc(N3CCCCC3)nc3ccccc23)cc1 | 97 | 7.4 (≈ 2.49 µg/mL) | 
Fc1ccc(CNc2nc(N3CCCCC3)nc3cccc(Cl)c23)cc1 | < 30 |  | 
OCC(Nc1cc(N2CCCCC2)nc2ccccc12)c1ccc(F)cc1 (stereo not given) | 55 |  | 
O=C(O)C(Nc1cc(N2CCCCC2)nc2ccccc12)c1ccc(F)cc1 (stereo not given) | < 30 |  | 
COc1ccc(CNc2nc(N3CCCCC3)nc3ccccc23)cc1 | 97 |  | 
Clc1ccc(CNc2nc(N3CCCCC3)nc3ccccc23)c(Cl)c1 | 98 |  | 
Fc1ccc(CNc2nc(C(F)(F)F)nc3ccccc23)cc1 | < 30 |  | 
Fc1ccc(CNc2nc(N3CCCCC3)nc3ccccc23)cc1F | 96 |  | 
Fc1ccc(CNc2cc(N3CCCCC3)nc3ccccc23)cc1 | 98 |  | 
Cc1cc(NCc2ccc(F)cc2)nc(N2CCCCC2)n1 | < 30 | 83 (≈ 24.9 µg/mL) | 
NC1CCN(c2nc(NCc3ccc(F)cc3)c3ccccc3n2)CC1 | < 30 |  | 
Fc1ccc(CNc2nc(N3CCCCC3)nc3cnccc23)cc1 | 59 | 30 (≈ 10.1 µg/mL) | 
COc1cc2nc(N3CCCCC3)nc(NCc3ccc(F)cc3)c2cc1OC | 92 | 25 (≈ 9.91 µg/mL) | 
Fc1ccc(CNc2nc(-c3ccccc3)nc3ccccc23)cc1 | < 30 | 76 (≈ 25 µg/mL) | 
Fc1ccc(CNc2nc(N3CCCCC3)nc3ccc(Cl)cc23)cc1 | 49 |  | 
O=C(O)CC1CCCCN1c1nc(NCc2ccc(F)cc2)c2ccccc2n1 (stereo not given) | < 30 |  | 
Cc1nc(NCc2ccc(F)cc2)c2ccccc2n1 | < 30 | 94 (≈ 25.1 µg/mL) | 
Fc1ccc(CNc2nc(N3CCCCC3)nc3cccc(F)c23)cc1 | < 30 |  | 
c1ccc(CNc2nc(N3CCCCC3)nc3ccccc23)cc1 | 96 | 9.2 (≈ 2.93 µg/mL) | 
c1ccc2c(N3CCCCC3)nc(N3CCCCC3)nc2c1 | < 30 |  | 
